Numbers after ± are expanded uncertainties.
Columns and labels:
[1] = 101 kPa, Liquid; for speed of sound: Frequency=2 MHz, Sing-around technique in a fixed-path interferometer; for viscosity: Oscillating disk viscometry; for mass density: Vibrating tube method
[2] = xn = mol fraction of the nth substance listed; details: 101 kPa, Liquid, x1 = 1; for speed of sound: Frequency=2 MHz, Sing-around technique in a fixed-path interferometer; for viscosity: Oscillating disk viscometry; for mass density: Vibrating tube method

Row | Compound | speed of sound ([1]; 303.15 K) | viscosity ([1]; 303.15 K) | mass density ([1]; 303.15 K) | speed of sound ([1]; 308.15 K) | viscosity ([1]; 308.15 K) | mass density ([1]; 308.15 K) | speed of sound ([1]; 313.15 K) | viscosity ([1]; 313.15 K) | mass density ([1]; 313.15 K) | speed of sound ([1]; 318.15 K) | viscosity ([1]; 318.15 K) | mass density ([1]; 318.15 K) | speed of sound ([2]; 303.15 K) | viscosity ([2]; 303.15 K) | mass density ([2]; 303.15 K) | speed of sound ([2]; 308.15 K) | viscosity ([2]; 308.15 K) | mass density ([2]; 308.15 K) | speed of sound ([2]; 313.15 K) | viscosity ([2]; 313.15 K) | also measured
1 | CN1CCCC1=O [N-methylpyrrolidone] | 1552.8 ± 1 m/s | 1.511 ± 0.3 mPa·s | 1023.45 ± 0.11 kg/m3 | 1526.4 ± 0.9 m/s | 1.409 ± 0.28 mPa·s | 1019.34 ± 0.11 kg/m3 | 1501 ± 0.9 m/s | 1.332 ± 0.27 mPa·s | 1014.82 ± 0.11 kg/m3 | 1478 ± 0.9 m/s | 1.21 ± 0.24 mPa·s | 1010.06 ± 0.11 kg/m3 | – | – | – | – | – | – | – | – | –
2 | CN1CCCC1=O [N-methylpyrrolidone] + C1=CCCCC1 | – | – | – | – | – | – | – | – | – | – | – | – | 1552.8 ± 1 m/s | 1.511 ± 0.3 mPa·s | 1023.45 ± 0.11 kg/m3 | 1526.4 ± 0.9 m/s | 1.409 ± 0.28 mPa·s | 1019.34 ± 0.11 kg/m3 | 1501 ± 0.9 m/s | 1.332 ± 0.27 mPa·s | mass density ([2]; 313.15 K): 1014.82 ± 0.11 kg/m3; speed of sound ([2]; 318.15 K): 1478 ± 0.9 m/s; viscosity ([2]; 318.15 K): 1.21 ± 0.24 mPa·s; mass density ([2]; 318.15 K): 1010.06 ± 0.11 kg/m3
3 | CN1CCCC1=O [N-methylpyrrolidone] + NC1CCCCC1 | – | – | – | – | – | – | – | – | – | – | – | – | 1552.8 ± 1 m/s | 1.511 ± 0.3 mPa·s | 1023.45 ± 0.11 kg/m3 | 1526.4 ± 0.9 m/s | 1.409 ± 0.28 mPa·s | 1019.34 ± 0.11 kg/m3 | 1501 ± 0.9 m/s | 1.332 ± 0.27 mPa·s | mass density ([2]; 313.15 K): 1014.82 ± 0.11 kg/m3; speed of sound ([2]; 318.15 K): 1478 ± 0.9 m/s; viscosity ([2]; 318.15 K): 1.21 ± 0.24 mPa·s; mass density ([2]; 318.15 K): 1010.06 ± 0.11 kg/m3
4 | CN1CCCC1=O [N-methylpyrrolidone] + OC1CCCCC1 | – | – | – | – | – | – | – | – | – | – | – | – | 1552.8 ± 1 m/s | 1.511 ± 0.3 mPa·s | 1023.45 ± 0.11 kg/m3 | 1526.4 ± 0.9 m/s | 1.409 ± 0.28 mPa·s | 1019.34 ± 0.11 kg/m3 | 1501 ± 0.9 m/s | 1.332 ± 0.27 mPa·s | mass density ([2]; 313.15 K): 1014.82 ± 0.11 kg/m3; speed of sound ([2]; 318.15 K): 1478 ± 0.9 m/s; viscosity ([2]; 318.15 K): 1.21 ± 0.24 mPa·s; mass density ([2]; 318.15 K): 1010.06 ± 0.11 kg/m3
5 | OC1CCCCC1 [cyclohexanol] | 1443.2 ± 0.9 m/s | 41.07 ± 8.2 mPa·s | 941.32 ± 0.12 kg/m3 | 1419.6 ± 0.9 m/s | 27.95 ± 5.6 mPa·s | 937.23 ± 0.12 kg/m3 | 1395.2 ± 0.9 m/s | 16.66 ± 3.3 mPa·s | 933.48 ± 0.12 kg/m3 | 1370.8 ± 0.9 m/s | 8.888 ± 1.8 mPa·s | 928.11 ± 0.12 kg/m3 | – | – | – | – | – | – | – | – | –
6 | C1=CCCCC1 [cyclohexene] | 1252.1 ± 0.8 m/s | 0.581 ± 0.12 mPa·s | 801.81 ± 0.15 kg/m3 | 1224.8 ± 0.8 m/s | 0.549 ± 0.11 mPa·s | 797.25 ± 0.15 kg/m3 | 1196.6 ± 0.8 m/s | 0.516 ± 0.1 mPa·s | 792.61 ± 0.15 kg/m3 | 1169.6 ± 0.8 m/s | 0.488 ± 0.098 mPa·s | 788.02 ± 0.15 kg/m3 | – | – | – | – | – | – | – | – | –
7 | NC1CCCCC1 [cyclohexylamine] | 1397.8 ± 0.9 m/s | 1.797 ± 0.36 mPa·s | 857.71 ± 0.14 kg/m3 | 1379.2 ± 0.9 m/s | 1.704 ± 0.34 mPa·s | 853.14 ± 0.14 kg/m3 | 1360.6 ± 0.9 m/s | 1.617 ± 0.32 mPa·s | 848.61 ± 0.14 kg/m3 | 1342 ± 0.9 m/s | 1.506 ± 0.3 mPa·s | 844.07 ± 0.14 kg/m3 | – | – | – | – | – | – | – | – | –

— the NIST ThermoML archive (doi:10.1016/j.tca.2014.06.026)
